Laboratory results: patent US20210128567A1, “Compositions and Methods for Cognitive, Immune and Digestive Support in Patients with Autism Spectrum Disorder” (FLAASK, LLC, priority 2017, published 2021)

Tested on: children with confirmed ASD diagnoses
Test: Outcome of therapies received prior to the subject treatment, as reported by parents
Type: in vivo, human

| Molecule | result of prior 5-metylhydrofolate and Metylcobalamin B-12 (patient one, given together) | result of prior treatment by Valtrex and Viferon (patient one, given together) | result of prior Valtrex, according to parents the most effective prior therapy (patient two) |
| --- | --- | --- | --- |
| CN1c2c(nc(N)[nH]c2=O)NCC1CNc1ccc(C(=O)N[C@@H](CCC(=O)O)C(=O)O)cc1 (stereo partly shown) [5-metylhydrofolate] | more self-dependence |  |  |
| CC(C)[C@H](N)C(=O)OCCOCn1cnc2c(=O)[nH]c(N)nc21 [Valtrex, valacyclovir] |  | they are getting sick more rarely, learned to swim and to communicate through PECS cards | they became more communicative, attempts to speak appeared, became calmer, eye contact has improved |
| Metylcobalamin B-12 | more self-dependence |  |  |
